The experiment concerns P. falciparum 3D7 growth, pLDH absorbance. Description: P. falciparum 3D7 growth inhibition, dose response, strain 3D7 (AID 2305).

Where “and” joins values, the source holds several entries; their conditions need not be identical. Equal entries are not always repeated.

The IC50 is the point on the concentration scale where inhibition reaches its midpoint. High values mean lower potency, low ones higher potency. Consider `COc1ccc2nccc([C@@H](O)CN3CCC(NCCOc4ccc(F)cc4Cl)CC3)c2c1`, for which the IC50 turned out to be 280 nM. This counts as sub-micromolar. `COc1cccc(-c2ccc3c(-c4ccc(F)cc4)cnc(N)c3c2)c1` returned a half-inhibitory concentration (IC50) of 810 nM. In the case of `O=C(/C=C/c1ccccc1Cl)NC1CCC(CN2CCC(c3c[nH]c4ccccc34)CC2)CC1` (stereo not drawn), the 50% inhibitory concentration (IC50) was 600 nM and 850 nM. Compound `N=C(N)CCN(Cc1ccccc1)c1ccc(Cl)cc1` came in with a concentration for half-maximal inhibition (IC50) of 260 nM. The figure for `CCN(CC)CCN(CCN(CC)CC)c1ccc2c(c1)Sc1c(Cl)ccc(Cl)c1S2` is 880 nM; for `N#Cc1ccc2c(c1)CN(CCCCNC(=O)c1ccc(-c3ccccc3)cc1)CC2` it is 890 nM; for `CCc1c[nH]c2c(N3CCCCC3=O)cc(C(=O)N[C@@H](Cc3ccccc3)[C@H](O)CNCc3cccc(OC)c3)cc12` it is 170 nM.

In turn, `CC(C)(C)c1ccc(-c2ccccc2CNC(=O)c2cccc(O)c2)cc1` registered an IC50 of 270 nM.

`O=C(CCc1ccco1)NC1CCN(CC2(c3ccc(Cl)cc3)CCC2)CC1` displayed a half-maximal inhibitory concentration (IC50) of 1450 nM. This IC50 is about 5.4-fold higher than that of the compound before.

As for `O=[N+]([O-])c1cccc(CNCC2CCN(Cc3ccc4ccccc4c3)CC2)c1`, the IC50 amounted to 880 nM. On to `CCC[C@@H]([C@@H](CC1CCCCC1)C(=O)N[C@H](C(=O)Nc1nccc(N)n1)C(C)(C)C)N(O)C=O`, for which the half-maximal inhibitory concentration (IC50) came to 530 nM. As for `Cc1nc2nc(N)nc(N)c2c(C)c1Cc1ccc(N)cc1`, the figure is 640 nM. The figure for `CCCC(CNCc1cccc(C)c1)CNc1cc(=O)c2ccccc2[nH]1` (stereo not drawn) is 630 nM; for `COc1ccc(C2NCCc3c2[nH]c2ccccc32)cc1CN1CCN(c2ccc(F)cc2)CC1` (stereo not drawn) it is 780 nM. The figure for `O=C(Nc1ccc(OC2CCN(Cc3ccsc3)CC2)c(Cl)c1)c1cccs1` is 600 nM; for `CCCCC(=O)Nc1cc(=O)[nH]c2nc(-c3ccc(Cl)cc3)nn12` it is 710 nM; for `COCCNCc1ccc(-c2cccc(CNC3CCN(Cc4ccccc4)CC3)c2)cc1` it is 330 nM.

`CCc1c(C(=O)NC2CCC(N3CCC(c4ccccc4C)CC3)CC2)[nH]c2ccc(OC)cc12` (stereo not drawn) yielded an IC50 of 810 nM. The figure for `N#Cc1cc([N+](=O)[O-])ccc1-n1nc(-c2cccc(Cl)c2)n(Cc2ccco2)c1=S` is 200 nM; for `CC1(C)N=C(N)N=C(N)N1OCC1COc2ccccc2O1` (stereo not drawn) it is 30 nM. The figure for `O=C(NCCCCCN1CCC(c2c[nH]c3ccccc23)CC1)Nc1ccc(I)cc1` is 990 nM; for `COc1cc(NC(=O)c2cc([N+](=O)[O-])ccc2NC(=O)CNC2CCCC(C)C2C)cc(OC)c1` (stereo not drawn) it is 1040 nM; for `Cc1cc(N2CCCC2)nc(Nc2ccc(NC(=O)Cc3ccccc3)cc2)n1` it is 610 nM. The figure for `O=C(Nc1cccc(CN2CCN(C(=O)c3cccc(F)c3)CC2)c1)c1cccs1` is 370 nM; for `COc1ccc(-c2cc(-c3ccc(S(C)(=O)=O)cc3)cnc2N)cn1` it is 190 nM; for `Cc1cc(F)ccc1Nc1nc(N(C)c2ccccc2)c2cccc(O)c2n1` it is 960 nM. In turn, `CC(C)N1CCC(N(Cc2ccc(-c3ccc(Cl)cc3)cc2)C(=O)Cn2c(CCc3cccc(F)c3F)cc(=O)c3ccccc32)CC1` had an IC50 of 930 nM. The IC50 values of the last two compounds are within 1.5-fold of each other. As for `Cc1cc(N[C@@H](CC(C)C)C(=O)Nc2ccccc2)nc(NCCc2ccc(F)cc2)n1`, the figure is 1090 nM; as for `CC(C)(CN1CCCC1)CN(Cc1ccc(-c2ccc(C(F)(F)F)cc2)cc1)C(=O)Cn1c(CCc2cccc(F)c2F)nc(=O)c2ccccc21`, 790 nM. As for `O=C(Cc1ccccc1)NC(CCN1CCC(O)(c2cccc(C(F)(F)F)c2)CC1)c1ccc(Cl)c(Cl)c1` (stereo not drawn), the figure is 860 nM. As for `CC(Cc1ccc(OCCN2CCN(c3ccc(Cl)cc3)CC2)cc1)NCC(O)c1cccc(C(F)(F)F)c1` (stereo not drawn), the figure is 810 nM. Compound `CC(O)C1CCCCN1C(=O)c1cccc(-c2ccc(-c3nc4ccc(C(F)(F)F)cc4[nH]3)cc2)c1` (stereo not drawn) had an IC50 of 690 nM.

Compound `COc1ccccc1C1CN(Cc2coc3ccccc3c2=O)Cc2ccccc2O1` (stereo not drawn) returned an IC50 of 1320 nM. This IC50 lies about 1.9-fold higher than the previous one. `Nc1ncnc2c1ncn2C(CO)Cc1ccc(O)cc1` (stereo not drawn) returned a concentration for half-maximal inhibition (IC50) of 1030 nM. Consider `C[C@@H](N=C(Nc1ccc(-c2ccccc2)cc1)Nc1ccc(C#N)cc1O)c1ccc(Br)cc1`, for which the IC50 was found to be 700 nM. The figure for `COc1ccc2nccc([C@@H](O)CN3CCC(NCc4cc5ccccc5[nH]c4=O)CC3)c2c1` is 180 nM. In turn, `CCC(C)(CC)C(=O)n1ncc2c3c(N)nc(N)nc3ccc21` showed an IC50 of 10 nM. The figure for `O=S(=O)(Nc1ccc2nccc(N3CCNCC3)c2c1)c1ccc(-c2ccccc2)cc1` is 980 nM. The compound `Nc1ncc(-c2ccccc2)cc1/C=C/c1cccnc1` came in with a half-maximal inhibitory concentration (IC50) of 1120 nM. As for `Cc1nc2ccc(/C=C/C(=O)NC3CCC(CCN4CCc5ccc(C#N)cc5CC4)CC3)cc2[nH]1` (stereo not drawn), the figure is 1140 nM; as for `CCNc1cc(CCCC(=O)OCC)nc(Nc2ccc(C)cc2)n1`, 770 nM.

Consider `C#CCN1CCC2=C(C1)c1c(O)cc(C(C)CCCc3ccc(F)cc3)cc1OC2(C)C` (stereo not drawn), for which the half-inhibitory concentration (IC50) was 730 nM. The figure for `CC1CC(NCCCNc2cc(=O)c3ccccc3[nH]2)c2c(Cl)c(Cl)cc(Cl)c21` (stereo not drawn) is 980 nM. The figure for `CC(C)OC(=O)c1ccccc1S(N)(=O)=O` is 670 nM. The figure for `COc1cc(Nc2ccnc3cc(-c4nccs4)ccc23)ccc1OCCCc1nc2ccccc2[nH]1` is 240 nM.

The compound `CC(=O)Nc1ccc(OCCN(CC(C)C)c2ccc(C#N)c(C(F)(F)F)c2)c(Cl)c1` yielded an IC50 of 790 nM. This IC50 lies about 3.3-fold higher than the previous one. The figure for `COc1ccc(-c2cc(C(=O)Nc3ccc(CCCN(C)Cc4ccc(OC)c(OC)c4)cc3)c3ccccc3n2)cc1` is 700 nM. The figure for `O=C(Nc1ccc(Cl)c(Cl)c1)Nc1ccc2nccc(N3CCN(Cc4ccccc4)CC3)c2c1` is 160 nM; for `Cc1ccc(NC(=O)c2ccc(NCCCN(C)Cc3ccccc3)c([N+](=O)[O-])c2)cc1F` it is 700 nM. The figure for `O=C(Nc1cccc(C2=NCCN2)c1)Nc1cccc(C2=NCCN2)c1` is 420 nM; for `Cc1cccc(C)c1CNc1ccnc2cc(C#N)ccc12` it is 680 nM.

`Cc1c(NC(=O)COc2ccc(Cl)cc2C(=O)c2cc(F)cc(C(F)(F)F)c2)ccc2ncsc12` had an IC50 of 1020 nM. As for `Cc1[nH]c(C)c(-c2ccc(Oc3ccc(Cl)cc3)c(Cl)c2)c(=O)c1Br`, the figure is 490 nM; as for `CCC(C)c1ccc(-n2c(Nc3ccccc3)nc3cc(S(N)(=O)=O)ccc32)cc1` (stereo not drawn), 1060 nM; as for `O=C(O)/C=C/c1cccc(F)c1F`, 100 nM. As for `COc1cc2nc(NCC3CCCCC3)nc(NCc3ccccc3)c2cc1OC`, the figure is 140 nM. As for `CCCn1c(Sc2ccc(C#N)c([N+](=O)[O-])c2)nnc1-c1cc(OC)cc(OC)c1`, the figure is 720 nM; as for `Cc1cccc(-c2cccc(CNc3nc(NCCc4ccc(O)cc4)nc(N4CCNCC4)n3)c2)c1`, 1190 nM; as for `C[C@H](Cc1ccc(OCCCCCCCOc2ccc(C[C@@H](C)NC[C@H](O)c3cccc(Cl)c3)cc2)cc1)NC[C@H](O)c1cccc(Cl)c1`, 190 nM. `CN1CCN(c2cccc(-c3nnc(-c4cccc(OCC(=O)NCc5ccc(C(F)(F)F)cc5)c4)o3)c2)CC1`: the IC50 is 760 nM. `NC(=O)c1cccc(C(=O)Nc2cccc(-c3csc(-c4nc5ccccc5[nH]4)c3)c2)c1` gave an IC50 of 130 nM. In turn, `COc1ccc(CCN(C)CCOc2ccc(NC(=O)c3cc(SC)cc4c(=O)c5ccccc5[nH]c34)cc2)cc1OC` returned a concentration for half-maximal inhibition (IC50) of 1400 nM. Consider `N#Cc1ccc2nc(-c3ccccc3)[nH]c2c1`, for which the IC50 is 700 nM. Against the preceding compound, the IC50 is about 2-fold lower. The figure for `CC(CCc1ccccc1)NCC(O)c1ccc2c3c(cccc13)C(=O)N2C` (stereo not drawn) is 810 nM. `Cc1ccccc1C1CCN(C2CCC(NC(=O)/C=C/c3ccc(F)cc3)CC2)CC1` (stereo not drawn): the IC50 stood at 1340 nM.

Take `Cc1ccc(Cn2c(N3CCC(C(=O)NCc4cccs4)CC3)nc3ccccc32)cc1`: the IC50 was determined as 750 nM. The figure for `COc1cccc(CNCC(C)(C)c2nc(-c3ccc(Cl)c(O)c3)c(-c3ccncc3)[nH]2)c1` is 690 nM; for `COc1ccc(-n2cc(CNCCCn3ccnc3)c(-c3cccc(F)c3)n2)cc1` it is 1060 nM; for `O=C(/C=C/c1ccc(Cl)c(Cl)c1)NCCCCCN1CCC(C(=O)Nc2ccc(Cl)c(Cl)c2)CC1` it is 640 nM. Regarding `CS(=O)(=O)NCCCNCc1cccc(-c2ccc(-c3nc4ccc(C(F)(F)F)cc4[nH]3)cc2)c1`, the IC50 came out at 1000 nM. In the case of `CCCCCc1cnc2nc(N)nc(N)c2c1`, the 50% inhibitory concentration (IC50) was found to be 1230 nM. The figure for `CCc1cc(I)c2c(c1)C(NCCCNc1cc(=O)c3ccccc3[nH]1)CCN2` (stereo not drawn) is 890 nM; for `O=C(Nc1ccc(C(=O)N2CCN(CCN3CCN(c4cccc(C(F)(F)F)c4)CC3)CC2)cc1)c1ccc(OC(F)(F)F)cc1` it is 690 nM.

`COc1cc(N(C)Cc2cnc3nc(N)nc(N)c3n2)cc(OC)c1OC` displayed a 50% inhibitory concentration (IC50) of 440 nM.

Compound `CC(Cc1ccc(OCc2ccccc2)c(Cl)c1)NCC(O)c1cccc(C(F)(F)F)c1` (stereo not drawn) displayed a half-inhibitory concentration (IC50) of 940 nM. The figure for `O=C(CCC1CCCCC1)NCCNc1cccc2ccccc12` is 830 nM; for `CC(C)Sc1nc2c(c(=O)n1CCc1ccccc1)C1(CCCCC1)Cc1ccccc1-2` it is 1870 nM.

In turn, `O=C(Nc1ccc(Oc2cccnc2)cc1)C1CCN(Cc2cc(Cl)ccc2O)CC1` gave a half-maximal inhibitory concentration (IC50) of 1350 nM. On to `S=C(Nc1ccc2c(c1)OCCO2)NC1CCC(CN2CCC(c3c[nH]c4ccccc34)CC2)CC1` (stereo not drawn), for which the concentration for half-maximal inhibition (IC50) was 650 nM and 1000 nM. Turning to `Cc1noc(C)c1-c1cccc(C(=O)NC2CCN(CCNC(=O)C(c3ccccc3)c3ccccc3)CC2)c1`, the 50% inhibitory concentration (IC50) was found to be 1220 nM. As for `COc1cc2nc(N3CCC(CNC(=O)c4ccc(-c5ccc(C(=O)N(C)C)cc5O)cc4)CC3)nc(N)c2cc1OC`, the figure is 280 nM; as for `Cn1c(=N)cc(-c2ccc(Br)cc2)c2c(=O)[nH]c(N)nc21`, 1130 nM; as for `O=C(NCCCCCN1CCC(c2c[nH]c3ccccc23)CC1)c1ccc(-c2cccnc2)cc1`, 1030 nM. The figure for `CN(C)c1ccc(C=Cc2ccc3ccccc3n2)c(Cl)c1` is 440 nM; for `N=c1c2c(n(Cc3ccc(Cl)cc3Cl)c3c1CCC3)CCCC2` it is 350 nM; for `Clc1ccc(CNc2ccnc(NCc3cccnc3N3CCCC3)n2)c(Cl)c1` it is 1170 nM. For the compound `CN1CCC(N(C)c2nccc(N3CCN(Cc4cncn4Cc4ccccc4)CC3)n2)CC1`, the half-inhibitory concentration (IC50) is 700 nM. In the case of `CC1(CCc2ccccc2)N=C(Nc2ccc(Cl)cc2)N=C(N)C1c1ccc(Cl)c(Cl)c1` (stereo not drawn), the IC50 stood at 220 nM.
